US20260293895A1, “HERBICIDAL DERIVATIVES” (SYNGENTA CROP PROTECTION AG, priority 2023, published 2026)

How the values were obtained:
Assay type in all cases: in vivo
[1] = test system: Echinochloa crus-galli (ECHCG); assay: Pre-emergence herbicidal test, Echinochloa crus-galli (ECHCG); settings: 250 g/ha, evaluated after 13 days, glasshouse
[2] = test system: Amaranthus palmeri (AMAPA); assay: Pre-emergence herbicidal test, Amaranthus palmeri (AMAPA); settings: 250 g/ha, evaluated after 13 days, glasshouse
[3] = test system: Amaranthus retoflexus (AMARE); assay: Post-emergence herbicidal test, Amaranthus retoflexus (AMARE); settings: 250 g/ha, sprayed after 8 days cultivation, evaluated after 13 days, glasshouse
Method: (§1) Seeds of a variety of test species are sown in standard soil in pots (Setaria faberi (SETFA), Echinochloa crus-galli (ECHCG), Amaranthus palmeri (AMAPA), Zea mays (ZEAMX), Amaranthus retoflexus (AMARE),). After 8 days cultivation under controlled conditions in a glasshouse (at 24° C./16° C., day/night; 14 hours light; 65% humidity), the plants are sprayed with an aqueous spray solution derived from the formulation of the technical active ingredient in acetone/water (50:50) solution containing 0.5% Tween 20 (polyoxyethelyene sorbitan monolaurate, CAS RN 9005-64-5). Compounds are applied at 250 g/ha unless otherwise stated. The test plants are then grown in a glasshouse under controlled conditions in a glasshouse (at 24° C./16° C., day/night; 14 hours light; 65% humidity) and watered twice daily. After 13 days the test is evaluated for the percentage damage caused to the plant. The biological activities are shown in the following table on a five-point scale (5=81-100%; 4=61-80%; 3=41-60%; 2=21-40%; 1=1-20%; 0=no activity; -=not tested).

Setaria faberi (SETFA) [4] = assay: Pre-emergence herbicidal test, Setaria faberi (SETFA); settings: 250 g/ha, evaluated after 13 days, glasshouse
[5] = test system: Amaranthus palmeri (AMAPA); assay: Post-emergence herbicidal test, Amaranthus palmeri (AMAPA); settings: 250 g/ha, sprayed after 8 days cultivation, evaluated after 13 days, glasshouse
Method: as §1

Setaria faberi (SETFA) [6] = assay: Post-emergence herbicidal test, Setaria faberi (SETFA); settings: 250 g/ha, sprayed after 8 days cultivation, evaluated after 13 days, glasshouse
Method: as §1

Zea mays (ZEAMX) [7] = assay: Post-emergence test, Zea mays (ZEAMX); design: key: 5: 81-100%; 4: 61-80%; 3: 41-60%; 21-40%; 1-20%; 0: no activity; -: not tested; settings: 250 g/ha, sprayed after 8 days cultivation, evaluated after 13 days, glasshouse, crop
Method: as §1

Zea mays (ZEAMX) [8] = assay: Pre-emergence test, Zea mays (ZEAMX); settings: 250 g/ha, evaluated after 13 days, glasshouse, crop
[9] = test system: Amaranthus retoflexus (AMARE); assay: Pre-emergence herbicidal test, Amaranthus retoflexus (AMARE); settings: 250 g/ha, evaluated after 13 days, glasshouse
[10] = test system: Echinochloa crus-galli (ECHCG); assay: Post-emergence herbicidal test, Echinochloa crus-galli (ECHCG); settings: 250 g/ha, sprayed after 8 days cultivation, evaluated after 13 days, glasshouse
Method: as §1

With `CCn1c(Cl)cc(=O)c(C(=O)O)c1-c1ccc(Cl)c(Cl)c1` [Compound 2, 6-chloro-2-(3,4-dichlorophenyl)-1-ethyl-4-oxo-pyridine-3-carboxylic acid] the “percentage damage caused to the plant, ECHCG” value [1] was 3 (41-60%), the “percentage damage caused to the plant, AMAPA” value [2] was 2 (21-40%) and the “percentage damage caused to the plant, AMARE” value [3] was 1 (1-20%). The “percentage damage caused to the plant, SETFA” value (Setaria faberi (SETFA) [4]) was 5 (81-100%), the “percentage damage caused to the plant, AMAPA” value [5] was 1 (1-20%) and the “percentage damage caused to the plant, SETFA” value (Setaria faberi (SETFA) [6]) was 4 (61-80%). The “percentage damage caused to the plant, ZEAMX” value (Zea mays (ZEAMX) [7]) was 0, the “percentage damage caused to the plant, ZEAMX” value (Zea mays (ZEAMX) [8]) was 1 (1-20%) and the “percentage damage caused to the plant, AMARE” value [9] was 3 (41-60%). For the same compound, the “percentage damage caused to the plant, ECHCG” value [10] was 3 (41-60%).
